# Experimental data as given in ChEMBL document CHEMBL5360528, “A systematic review on the kappa opioid receptor and its ligands: New directions for the treatment of pain, anxiety, depression, and drug abuse” (Eur J Med Chem, 2022).
# Where a SMILES comes first, the peptide text is derived from it. [ ]: non-standard residue; d: D form. βAla = NCCC(=O)O
# How the values were obtained:
# Mus musculus [1] = organism: Mus musculus; assay: Antinociceptive activity in C57BL/6 mouse model of acute thermal pain assessed as paw withdrawal thermal threshold time by hot plate test; assay type: functional
# [2] = biological target: T1, Delta-type opioid receptor (Homo sapiens, UniProt P41143); assay: Binding affinity human DOR expressed in CHO cells assessed as inhibition constant by radio ligand binding assay; assay type: cell-based
# T1 sequence (P41143 whole entry): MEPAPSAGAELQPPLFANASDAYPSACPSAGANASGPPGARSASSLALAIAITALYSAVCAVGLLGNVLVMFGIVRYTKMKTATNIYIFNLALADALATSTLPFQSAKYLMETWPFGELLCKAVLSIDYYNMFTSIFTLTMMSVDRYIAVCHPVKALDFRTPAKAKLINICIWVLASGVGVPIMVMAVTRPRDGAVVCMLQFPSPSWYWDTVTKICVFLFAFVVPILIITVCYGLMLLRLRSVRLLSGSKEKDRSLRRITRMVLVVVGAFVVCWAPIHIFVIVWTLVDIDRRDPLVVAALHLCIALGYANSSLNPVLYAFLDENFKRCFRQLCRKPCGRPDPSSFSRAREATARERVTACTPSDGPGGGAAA
# [3] = biological target: T2, Kappa-type opioid receptor (Homo sapiens, UniProt P41145); assay: Binding affinity to wild type human KOR assessed as inhibition constant
# T2 sequence (P41145 whole entry): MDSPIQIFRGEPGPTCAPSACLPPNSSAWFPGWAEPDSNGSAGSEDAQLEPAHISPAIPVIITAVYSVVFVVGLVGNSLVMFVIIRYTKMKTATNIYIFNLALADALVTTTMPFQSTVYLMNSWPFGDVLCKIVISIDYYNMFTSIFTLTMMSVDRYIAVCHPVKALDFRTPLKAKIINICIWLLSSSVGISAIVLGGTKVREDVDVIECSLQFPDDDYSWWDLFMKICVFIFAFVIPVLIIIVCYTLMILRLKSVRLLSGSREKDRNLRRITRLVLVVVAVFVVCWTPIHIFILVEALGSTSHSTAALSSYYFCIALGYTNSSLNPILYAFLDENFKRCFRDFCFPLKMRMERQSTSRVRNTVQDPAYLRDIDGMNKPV
# Mu-type opioid receptor [4] = biological target: T3, Mu-type opioid receptor (Homo sapiens, UniProt P35372); assay: Binding affinity to human MOR expressed in HEK293 cells assessed as inhibition constant by GTPgammaS assay; assay type: cell-based
# T3 sequence (P35372 whole entry): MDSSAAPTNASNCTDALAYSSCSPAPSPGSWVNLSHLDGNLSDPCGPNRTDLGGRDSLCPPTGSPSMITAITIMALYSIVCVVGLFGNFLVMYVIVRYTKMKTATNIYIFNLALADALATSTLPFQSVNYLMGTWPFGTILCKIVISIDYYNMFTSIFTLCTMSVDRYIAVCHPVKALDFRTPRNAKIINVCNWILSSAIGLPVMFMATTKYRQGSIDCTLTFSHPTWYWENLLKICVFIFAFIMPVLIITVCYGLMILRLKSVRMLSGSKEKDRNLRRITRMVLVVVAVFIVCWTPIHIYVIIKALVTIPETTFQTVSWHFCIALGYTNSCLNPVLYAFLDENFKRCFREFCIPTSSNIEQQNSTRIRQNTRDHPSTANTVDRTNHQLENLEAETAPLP
# Mus musculus [5] = organism: Mus musculus; assay: Analgesic activity in acetic acid induced mouse assessed as assessed as reduction in acetic acid induced writhing […]; assay type: functional
# Mu-type opioid receptor [6] = biological target: T3, Mu-type opioid receptor; assay: Binding affinity to MOR (unknown origin) assessed as inhibition constant by radioligand binding assay
# [7] = biological target: T1, Delta-type opioid receptor; assay: Binding affinity to human DOR assessed as inhibition constant
# Mus musculus [8] = assay: Analgesic activity in sc dosed acetic acid induced mouse assessed as assessed as reduction in acetic acid induced writhing […]; assay type: functional
# [9] = biological target: T2, Kappa-type opioid receptor; assay: Binding affinity to KOR (unknown origin) assessed as inhibition constant
# [10] = biological target: T1, Delta-type opioid receptor; assay: Binding affinity to DOR (unknown origin) assessed as inhibition constant by ratio ligand binding assay
# [11] = biological target: Kappa-type opioid receptor (Cavia porcellus) (UniProt P41144); assay: Agonist activity at KOR in guinea pig brain membranes assessed as stimulation of [35S]GTPgammaS binding relative to control; assay type: functional, cell membranes; conditions: Membrane, filed as agonist
# Kappa-type opioid receptor (Cavia porcellus), sequence (P41144 whole entry): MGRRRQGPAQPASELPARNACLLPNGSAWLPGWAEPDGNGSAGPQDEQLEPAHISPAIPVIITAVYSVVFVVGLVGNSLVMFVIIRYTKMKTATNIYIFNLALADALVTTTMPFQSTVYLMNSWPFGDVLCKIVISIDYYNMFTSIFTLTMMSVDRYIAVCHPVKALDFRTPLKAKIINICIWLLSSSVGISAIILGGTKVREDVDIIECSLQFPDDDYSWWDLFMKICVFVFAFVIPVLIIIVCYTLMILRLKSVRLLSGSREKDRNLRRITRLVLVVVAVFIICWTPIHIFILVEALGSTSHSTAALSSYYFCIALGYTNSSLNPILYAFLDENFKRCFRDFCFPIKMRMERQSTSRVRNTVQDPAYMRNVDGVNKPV
# Mus musculus [12] = assay: Antinociceptive activity in C57BL/6 mouse model of acute thermal pain assessed as paw withdrawal thermal threshold time at 1 mg/kg, po measured after 4 hrs by hot plate test; assay type: functional
# [13] = biological target: T1, Delta-type opioid receptor; assay: Binding affinity to human DOR expressed in HEK293 cells assessed as inhibition constant by GTPgammaS assay; assay type: cell-based
# [14] = Half life in C57BL/6 mouse plasma at 20 mg/kg, ip by LC-MS/MS analysis; assay type: ADME, organism-based
# [15] = Half life in C57BL/6 mouse […] at 20 mg/kg, ip by LC-MS/MS analysis; assay type: ADME, organism-based
# [16] = Half life in C57BL/6 mouse brain at 20 mg/kg, ip by LC-MS/MS analysis; assay type: ADME, organism-based
# Mus musculus [17] = assay: Antinociceptive activity in sc dosed mouse assessed as inhibition of acetic acid-induced abdominal constrictions by writhing test; assay type: functional
# [18] = biological target: T2, Kappa-type opioid receptor; assay: Binding affinity to KOR (unknown origin) expressed in CHO-K1 cell membrane assessed as stimulation of [35S]-GTPgammaS binding incubated for 1.5 hrs by scintillation spectroscopy analysis relative DAMGO; assay type: cell membranes
# [19] = biological target: T2, Kappa-type opioid receptor; assay: Agonist activity at KOR (unknown origin) by measuring cAMP inhibition; assay type: functional
# Mus musculus [20] = assay: Antinociceptive activity in CFA-induced mechanical allodynia in CD1 mouse model assessed as reduction in nociceptive response by measuring effective dose at iv administration; assay type: functional
# Mus musculus [21] = assay: Analgesic activity in iv dosed DBTC-induced neuropathic pain CD1 mouse model assessed as effective dose measured for 1 weeks; assay type: functional; conditions: CD1, 168 h
# Mus musculus [22] = assay: Antinociceptive activity in CFA-induced mechanical allodynia in CD1 mouse model assessed as reduction in nociceptive response by measuring effective dose at ip administration; assay type: functional
# Mus musculus [23] = organism: Mus musculus; assay: Antinociceptive activity in CFA-induced mechanical allodynia CD1 mouse model assessed as reduction in mechanical allodynia; assay type: functional
# Mus musculus [24] = assay: Antinociceptive activity in CD-1 mouse assessed as maximum possible effect at 10 nmol, icv measured after 15 mins by tail-flick test; assay type: functional; conditions: 0.25 h
# Mus musculus [25] = organism: Mus musculus; assay: Antinociceptive activity in Sprague-Dawley mouse assessed as inhibition of acetic acid-induced abdominal constrictions in presence of naloxone; assay type: functional
# Mus musculus [26] = organism: Mus musculus; assay: Antinociceptive activity in Sprague-Dawley mouse assessed as inhibition of acetic acid-induced abdominal constrictions; assay type: functional
# [27] = Half life in human; assay type: ADME
# [28] = Tmax in Sprague-Dawley rat at 1 mg/kg, iv by LC-MS analysis; assay type: ADME, organism-based; conditions: in vivo
# [29] = biological target: Kappa-type opioid receptor (Mus musculus, UniProt P33534); assay: Agonist activity at KOR in mouse vas deferens assessed as inhibition of electrically evoked vas deferens contraction
# Kappa-type opioid receptor (Mus musculus, UniProt P33534), sequence (P33534 whole entry): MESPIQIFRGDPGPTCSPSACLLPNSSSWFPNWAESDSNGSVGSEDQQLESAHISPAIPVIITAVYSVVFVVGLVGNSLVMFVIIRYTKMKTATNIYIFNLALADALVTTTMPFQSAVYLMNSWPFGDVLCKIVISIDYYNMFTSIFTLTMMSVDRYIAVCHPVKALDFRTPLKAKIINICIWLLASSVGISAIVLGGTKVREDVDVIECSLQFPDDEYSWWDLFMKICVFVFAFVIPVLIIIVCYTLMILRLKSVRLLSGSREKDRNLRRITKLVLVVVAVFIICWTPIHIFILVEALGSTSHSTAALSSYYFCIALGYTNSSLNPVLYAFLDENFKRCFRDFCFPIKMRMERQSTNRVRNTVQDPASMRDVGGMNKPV
# Mus musculus [30] = assay: Antinociceptive activity in sc dosed Ach-induced mouse assessed as inhibition of abdominal constriction; assay type: functional
# [31] = biological target: Kappa-type opioid receptor (Cavia porcellus, UniProt P41144); assay: Agonist activity at KOR in guinea pig brain membranes assessed as stimulation of [35S]GTPgammaS binding measured after 1 hr by liquid scintillation counting analysis; assay type: functional, cell membranes, Membrane
# Kappa-type opioid receptor (Cavia porcellus, UniProt P41144), sequence (P41144 whole entry): as the sequence (P41144 whole entry) above
# [32] = biological target: T2, Kappa-type opioid receptor; assay: Agonist activity at wild type human KOR receptor expressed in CHO cells assessed as stimulation of [35S]GTPgammaS binding measured after 30 mins by scintillation counting assay; assay type: functional, cell-based
# Mu-type opioid receptor [33] = biological target: T3, Mu-type opioid receptor; assay: Agonist activity at human MOR expressed in CHO-K1 cells assessed as inhibition of forskolin-stimulated cAMP accumulation incubated for 45 mins by cAMP HTRF assay; assay type: functional, cell-based
# [34] = biological target: T2, Kappa-type opioid receptor; assay: Binding affinity to human recombinant KOR assessed as inhibition constant
# Mus musculus [35] = assay: Antinociceptive activity in sc dosed mouse measured after 60 mins by warm water tail-flick assay; assay type: functional; conditions: 1 h
# [36] = biological target: T2, Kappa-type opioid receptor; assay: Binding affinity to human KOR expressed in HEK293 cells assessed as inhibition of forskolin-stimulated cAMP accumulation by HTRF assay; assay type: cell-based
# Mus musculus [37] = assay: Antinociceptive activity in ip dosed mouse assessed as inhibition of acetic acid-induced abdominal constrictions by writhing test; assay type: functional
structure (smiles),measurement,setting,value
CN1CC[C@]23c4c5ccc(O)c4O[C@H]2C(=O)CC[C@@]3(OCCCc2ccccc2)[C@H]1C5,AD50,Mus musculus [1],0.0007 mg/kg
same,Ki,[2],0.13 nM
same,Ki,[3],0.3 nM
same,Ki,Mu-type opioid receptor [4],0.073 nM
O=C(N[C@@H]1C=C[C@H]2[C@H]3Cc4ccc(O)c5c4[C@@]2(CCN3CC2CC2)[C@H]1O5)c1cccc(I)c1,ED50,Mus musculus [5],0.33 mg/kg
same,Ki,Mu-type opioid receptor [6],0.021 nM
same,Ki,[3],0.006 nM
same,Ki,[7],0.08 nM
same,ED50,Mus musculus [8],1 mg/kg
CC(C)C[C@@H](NC(=O)[C@@H](Cc1ccccc1)NC(=O)[C@H](N)Cc1ccccc1)C(=O)N[C@H](CCCCN)C(=O)N1CCC(N)(C(=O)O)CC1 [listing 1 of 2 here],Ki,Mu-type opioid receptor [6],> 10000 nM
same,Ki,[9],0.32 nM
CCCC[C@@H](NC(=O)[C@@H](CC1=CC=CCC1)NC(=O)[C@H](N)Cc1ccccc1)C(=O)N[C@H](CCCNC(=N)N)C(N)=O,Ki,[9],< 1 nM
Cc1ccc(CSc2nnc(-c3ccccn3)n2Cc2ccco2)cc1C(F)(F)F,Ki,Mu-type opioid receptor [6],1900 nM
same,Ki,[10],5350 nM
CCCCN(CCc1ccccc1)CCc1cccc(O)c1,Ki,Mu-type opioid receptor [6],360 nM
same,Ki,[10],2700 nM
same,Activity,[11],45.5%
CC(C)C[C@@H](NC(=O)[C@@H](CC1=CC=CCC1)NC(=O)[C@H](N)Cc1ccccc1)C(=O)N[C@H](CCCN)C(=O)N1CCOCC1,AD50,Mus musculus [12],0.013 mg/kg
same,Ki,[9],0.08 nM
N=C(N)Nc1ccc2c3c([nH]c2c1)[C@@H]1Oc2c(O)ccc4c2[C@@]12CCN(CC1CC1)[C@H](C4)[C@]2(O)C3,Ki,[13],81.8 nM
same,Ki,Mu-type opioid receptor [4],20.3 nM
COC(=O)[C@@H]1C[C@H](OC(C)=O)[C@H](O)[C@H]2[C@@]1(C)CC[C@H]1C(=O)O[C@H](c3ccoc3)C[C@]21C [1-ALPHA-HYDROXYSALVINORIN A],half-life,[14],3.75 h
same,half-life,[15],3.75 h
same,half-life,[16],3.75 h
C[C@H]1[C@H]2Cc3ccc(O)cc3[C@@]1(C)CCN2CCc1ccccc1,ED50,"Mus musculus [17]; Mus musculus, read-out: ED50",6.3 mg/kg
C[N+]1(CC2CC2)CC[C@]23c4c5ccc(O)c4O[C@H]2C(=O)CC[C@@]3(O)[C@H]1C5 (some centres not stated) [METHYLNALTREXONE],Ki,Mu-type opioid receptor [6],10 nM
same,Ki,[18],~30 nM
same,EC50,[19],6.7 nM
CC(C)C[C@@H](NC(=O)[C@@H](Cc1ccccc1)NC(=O)[C@H](N)Cc1ccccc1)C(=O)N[C@H](CCCCN)C(=O)N1CCC(N)(C(=O)O)CC1 [listing 2 of 2 here],ED50,Mus musculus [20],0.38 mg/kg
same,ED50,Mus musculus [21],0.3 mg/kg
same,ED50,Mus musculus [22],0.3 mg/kg
same,ED50,Mus musculus [23],0.07 mg/kg
O=C(N[C@@H]1CC[C@@]2(O)[C@H]3Cc4ccc(O)c5c4[C@@]2(CCN3CC2CC2)[C@H]1O5)c1ccc2ccccc2c1,ED50,Mus musculus [24],18.7 pmol
C[C@H]1[C@@H]2Cc3ccc(O)cc3[C@]1(C)CCN2CC1CC1,ED50,Mus musculus [25],0.077 mg/kg
same,ED50,Mus musculus [26],0.47 mg/kg
CCCC[C@@H](NC(=O)[C@@H](CC1=CC=CCC1)NC(=O)[C@H](N)Cc1ccccc1)C(=O)N[C@H](CCCNC(=N)N)C(=O)NCc1ccncc1,AD50,Mus musculus [12],0.007 mg/kg
same,Ki,[9],0.24 nM
Cc1cc(C)cc([C@@H]2CCCN2Cc2ccc(Oc3ccc(C(N)=O)cc3F)cc2)c1 [ATICAPRANT],half-life,[27],21 h
same,Tmax,[28],1 h
COC(=O)N1CCN(C(=O)Cc2ccc(Cl)c(Cl)c2)C(CN2CCCC2)C1 (configuration not stated),IC50,[29],0.041 nM
same,ED50,Mus musculus [30],0.00052 mg/kg
C#Cc1occc1[C@@H]1C[C@@]2(C)[C@@H](CC[C@@]3(C)[C@H](C(=O)OC)C[C@H](OC(C)=O)C(=O)[C@@]32C)C(=O)O1,Ki,[9],2.5 nM
CC(C)=CCN1CC[C@]2(C)c3cc(O)ccc3C[C@H]1[C@H]2C [(+)-PENTAZOCINE],Ki,[10],62 nM
same,EC50,[19],40 nM
same,Ki,[9],7.6 nM
O=C(O[C@@H]1[C@@H]2[C@H]3C[C@@H](C[C@H]2C(=O)O[C@H]1c1ccoc1)OC3=O)c1ccccc1,Ki,[31],> 5000 nM
same,EC50,[32],2 nM
same,Ki,[3],9 nM
COC(=O)[C@@H]1C[C@H](OC(=O)C2=Cc3ccccc3C2)C(=O)[C@H]2[C@@]1(C)CC[C@H]1C(=O)O[C@H](c3ccoc3)C[C@]21C,EC50,Mu-type opioid receptor [33],49.5 nM
same,Ki,Mu-type opioid receptor [6],538 nM
same,EC50,[19],853 nM
same,Ki,[9],49.7 nM
O=C(N[C@@H]1CC[C@@]2(O)[C@H]3Cc4ccc(O)c5c4[C@@]2(CCN3CC2CC2)[C@H]1O5)c1cc[n+](Cc2ccccc2)cc1,Ki,Mu-type opioid receptor [6],3.46 nM
same,Ki,[7],722 nM
same,Ki,[9],3.46 nM
CN(C(=O)C(c1ccccc1)c1ccccc1)[C@H](CN1CC[C@H](O)C1)c1ccccc1 [ASIMADOLINE],Ki,[34],5.6 nM
Oc1ccc2c(c1)[C@@]13CCCC[C@H]1[C@@H](C2)N(CC1CCC1)CC3 [BUTORPHAN],ED50,Mus musculus [35],7.3 nmol
same,ED50,Mus musculus [17],0.79 nmol
O=C1CNC(=O)[C@H](Cc2ccccc2)NC(=O)[C@@H](Cc2c[nH]c3ccccc23)NC(=O)CCN1 (cyclo(FG[βAla][dW])),Ki,[36],> 10 nM
same,Ki,[7],> 10 nM
CC(C)=CCN1CC[C@@]2(C)c3cc(O)ccc3CC1C2C (some centres not stated) [PENTAZOCINE],Ki,[10],62 nM
same,EC50,[19],40 nM
same,Ki,[9],7.6 nM
CN(C(=O)/C=C/c1ccoc1)[C@@H]1CC[C@@]2(O)[C@H]3Cc4ccc(O)c5c4[C@@]2(CCN3CC2CC2)[C@H]1O5 [NALFURAFINE],ED50,"Mus musculus [35]; Mus musculus, read-out: ED50",0.003 mg/kg
same,ED50,"Mus musculus [17]; Mus musculus, read-out: ED50",0.062 mg/kg
C[C@H]1[C@H]2Cc3ccc(C(N)=O)cc3[C@@]1(C)CCN2CC1CC1,Ki,[7],4.9 nM
same,ED50,Mus musculus [37],0.21 nmol
